# Measurements from patent US10031127B2, “Method for separating aggregates of malignant cells and aggregates from stromal cells of a malignant tumour tissue sample” (Flacod GmbH, priority 2012, dated 2018).
# What was measured:
# [1] = tested on: clusters of malignant cells and/or stromal cell clusters of malignant lung tumors (fractionated and unfractionated digestion products); test: chemosensitivity to cisplatin, colony formation on ECM-coated culture plates; type: cell-based; details: 6000 nM cisplatin, 3 days incubation, most of the fractionated and unfractionated digestion products
# Method: (§1) Samples were freshly resected from malignant lung tumors of various histologies, then purified and minced. Tumor tissue samples of 5 to 10 mg per 1 mL were suspended in RPMI 1640 culture medium with an FBS content of 10%. These suspensions were subjected to a collagenase digestion, preferably using Clostridium histolyticum collagenase (230 CDU/mL) for a period of 4 to 5 hours at 36° C. to 37° C., preferably at 36.5° C. Next the digested product was centrifuged at 50×g, the supernatant was discarded and the pellet was dissolved and resuspended in 1 mL fresh culture medium. Each test preparation was transferred to a Petri dish and adjusted with culture medium to a concentration corresponding to 5 to 10 mg tumor sample wet weight per 1 mL culture medium.
# (§2) The cell suspension of each test preparation (test run) was picked up with a 1 mL pipette tip (another aspiration device can also be used) and then discharged again, 4 to 5 times in succession, and thereby subjected to a treatment with hydrodynamic shearing forces. Next, with the help of an inverse microscope equipped with a phase contrast lens system, cell clusters of phenotypically the same cells were detected and each was transferred to a separate culture vessel using injection cannulas no. 23 (diameter 0.6 mm, length 60-80 mm) attached to 2 mL injection syringes. […]
# [2] = tested on: isolated stromal cell clusters of malignant lung tumors; test: chemosensitivity to cisplatin, isolated stromal cell clusters; type: cell-based; details: isolated microscopically identified stromal cell clusters, in the absence of malignant cells; 3 days, 0-6000 nM cisplatin
# Method: as §1, §2
compound,measurement,setting,value
N.N.[Cl][Pt][Cl] [cisplatin],colony formation ex vivo in the presence of cisplatin,[1],capable of forming colonies ex vivo even in the presence of 6000 nM cisplatin
same,cisplatin resistance of stromal cell clusters,[2],often have cisplatin resistance even in the absence of malignant cells
